Here are results for one compound from patent publication US12508280B2, “Formulations for improving gut health” (DSM IP ASSETS B.V., priority 2018, dated 2025).

The test system of one assay is Bifidobacterium. Kind of assay: Microbiome composition by shotgun sequencing: Bifidobacterium (first set). It counts as cell-based, human. The conditions noted are these: after 24 h fermentation, vs corresponding control. The procedure:
(§1) Since ethanol is known to have antimicrobial effects, two blanks for each type of stock solution were included. As a source of the microbial community, a freshly prepared fecal suspension from the selected donor was added to the reactors. […] All tests, except the blanks, were performed in single repetition, resulting in 40 independent incubations, as specified in Table 1. Incubation conditions of the pre-screening experiment and the final experiment were 48 h at 37° C., under shaking (90 rpm) and anaerobic conditions. DNA were extracted from effluent samples collected from each fermentation flask before (0 h fermentation) and after fermentation (24 h fermentation) and use for microbiome composition analysis by Shotgun sequencing. Effluent samples were collected from each fermentation flask before (0 h fermentation) and after fermentation (48 h fermentation), sterilized by filtering through 0.22 μm filters and used for short chain fatty acids (SCFA), quantification of immunological biomarkers and in vitro analysis in cell culture systems.
(§2) For the first set of in vitro experiments, total DNA was extracted from all samples collected throughout the study using the QIAamp DNA stool minikit (Qiagen, Crawley, United Kingdom) according to the manufacturer's instructions, apart from addition of a bead-beating step and increasing the lysis temperature to 95° C. as described previously (McCormack et al., 2018).
(§3) After DNA isolation, DNA was quantified using the Qubit High Sensitivity DNA assay (Thermo Fisher). Whole metagenome libraries were then prepared using the Illumina Nextera XT kit (Illumina) in accordance with the manufacturer's instructions, with the following modifications: Firstly, tagmentation time was increased to 7 min and secondly, following incorporation of indices and Ampure purification of the products, the samples were each individually sized by running on an Agilent High Sensitivity Chip (Agilent) and quantified using the Qubit High Sensitivity DNA assay (Thermo Fisher) in accordance with Teagasc Sequencing Platform SOPs. The samples were then pooled equimolarly and sequenced on the Illumina NextSeq 500 with a NextSeq 500/550 v2 high-output reagent kit (300 cycles). All sequencing was done in the Teagasc sequencing facility in accordance with standard Illumina sequencing protocols.
(§4) Delivered raw FASTQ sequence files were quality checked as follows: poor quality and duplicate read removal, as well as trimming was implemented using a combination of SAM and Picard tools. Taxonomy was assigned to the reads using the Kraken software and functional analysis was performed with Super focus.

Assay [1] relates to fecal microbial community. Kind of assay: Microbiome composition by shotgun sequencing: alpha diversity (first set). The class given is cell-based, human. The note with it: after 24 h fermentation, vs corresponding control. On the procedure: as §1, §2, §3, §4
In assay [2] the test system is fecal suspension from the selected donor. Kind of assay: Intestinal batch fermentation, SCFA production (first set). It counts as cell-based, human. The conditions noted are these: after 48 h fermentation, vs corresponding control. On the procedure: In a first set of in vitro experiments at the start of intestinal batch fermentation incubation, all test ingredients were added from stock solutions to the modified nutritional medium, containing (g/l): 2.5 K2HPO4, 10.9 KH2PO4, 2 NaHCO3, 2 yeast extract, 2 peptone, 1 mucin, 0.5 cysteine, 2 Tween 80, 2 glucose, 2 starch, 2 cellobiose, 0.1 NaCl, 0.01 MgSO4·7H2O, 0.01 CaCl2·6H2O, 0.05 hemin, 0.5 bile salts.
The other compounds were prepared in ethanol: • Vitamin K1 (VK1), • MEG-3 0080 EE Oil (MEG-3 0080 EE), • MEG-3 4535 EE Oil (MEG-3 4535 EE), • MEG-3 8000 EE Oil (MEG-3 8000 EE).
as §1
Short chain fatty acids (SCFA) are an assessment of the microbial carbohydrate metabolism (acetate, propionate and butyrate) or protein metabolism (branched SCFA) and can be compared to typical fermentation patterns for normal GI microbiota. Samples for SCFA analysis were analyzed after 0, 6, 24 and 48 h of incubation for both set of in vitro experiments, above.
SCFA were extracted from the samples with diethyl ether, after the addition of 2-methyl hexanoic acid as an internal standard. Extracts were analysed using a GC-2014 gas chromatograph (Shimadzu's-Hertogenbosch, the Nether-lands), equipped with a capillary fatty acid-free EC-1000Econo-Cap column (dimensions: […]×0.53 mm, film thickness […]; Alltech, Laarne, Belgium), a flame ionization detector and a split injector. The injection volume was […] and the temperature profile was set from 110 to 160° C., with a temperature increase of 6° C. min-1. The carrier gas was nitrogen and the temperature of the injector and detector were […] and 220° C., respectively. The production of unbranched and branched SCFA was calculated by summing the molar concentrations of acetate, propionate, butyrate, valerate and caproate, and summing isobutyrate, isovalerate and isocaproate molar concentrations, respectively. The total SCFA production was defined as the sum of unbranched and branched SCFA.

Assay [3] deals with Co-cultures of Caco-2 and HT29-MTX-E12 cells. Kind of assay: Barrier integrity, leaky gut model, apical stressor Rhamnolipids. It counts as cell-based. The conditions noted are these: 48 h minus 0 h fermentation samples, vs corresponding control.
In another assay the test system is HT29 cells. Put plainly: HT29 cell culture, quantification of immunological biomarkers. The note with it: effluent from 24 h fermentation, vs corresponding control. It counts as cell-based. On the procedure:
as §1, with “([…]), […]” for “(0 h fermentation) and after fermentation (48 h fermentation), sterilized by filtering through 0.22 μm filters and used for short chain fatty acids (SCFA), quantification of immunological biomarkers and in vitro analysis in”
For both sets of in vitro experiments, HT29 cells were obtained from American Type Culture Collection (Manassas, VA). Cells were cultured in DMEM supplemented with 10% fetal bovine serum (FBS), 50 units/ml penicillin, 50 μg/ml streptomycin, L-glutamine, and nonessential amino acids (Life Technologies Europe B.V., Zug, Switzerland). Cells were seeded into 12-well plates at 8×10^5 cells per well and used after 2 days of preculture. They were starved in DMEM containing 0.25% FBS for 18 h before treatment. Cells were treated for 24 hours with TNF-α at 100 ng/mL or fermentation supernatants which were sterile filtered and diluted 1:20 in DMEM containing 0.25% FBS. All treatments were done in triplicate. Consequently, cytokines, chemokines and interleukins were quantified in HT29 supernatants using the Luminex Technology (LiquiChip Workstation IS 200, Qiagen, Hilden, Germany) with Bio-Plex Pro Human Cytokine Panel kits (Bio-Rad, Hercules, CA) or with Luminex Screening Assay kits (R&D Systems, Inc., Minneapolis, MN), following the manufacturer's instructions. The data were acquired with the Luminex IS 2.3 software and evaluated with the LiquiChip Analyser software (Qiagen, Hilden, Germany).

Assay [4] deals with genes involved in Acetyl-CoA fermentation to Butyrate pathway. Put plainly: Shotgun sequencing functional analysis: butyrate pathway genes (first set). It counts as cell-based, human. The conditions noted are these: 0.2× dose; after 24 h fermentation; vs corresponding control. On the procedure:
as §1, §2, §3, §4

`Nc1nc2ncc(CNc3ccc(C(=O)N[C@@H](CCC(=O)O)C(=O)O)cc3)nc2c(=O)[nH]1` [folic acid, Folic acid]: the Bifidobacterium relative abundance result in the assay with Bifidobacterium (0.2× dose) and with Bifidobacterium (1× dose) was “increase Bifidobacterium relative abundance” throughout. Besides, the “microbiome alpha diversity (Shannon diversity index)” value in assay [1] (0.2× dose) and in assay [1] (1× dose) was “increase microbiome diversity” in each case. For the same compound, the acetate production entry in assay [2] (0.2× dose), in assay [2] (1× dose) and in assay [2] (5× dose) was “increase acetate production” in each case. In addition, the butyrate production entry in assay [2] (0.2× dose), in assay [2] (1× dose) and in assay [2] (5× dose) was “increase butyrate production” each time. The propionate production result in assay [2] (0.2× dose), in assay [2] (1× dose) and in assay [2] (5× dose) was “increase propionate production” each time. Also, the “total SCFAs production” value in assay [2] (0.2× dose), in assay [2] (1× dose) and in assay [2] (5× dose) was “increase total SCFAs production” in each case. Further, the “TEER, apical induction of leaky gut cellular model” value in assay [3] (0.2× dose) and in assay [3] (1× dose) was “increase TEER” throughout. Moreover, the “IL-8 production by HT29 cells” value in the assay with HT29 cells (0.2× dose) and in the assay on HT29 cells (5× dose) was “increase IL-8 production” in each case. For the same compound, the “relative abundance of genes involved in Acetyl-CoA fermentation to Butyrate pathway” value in assay [4] is “increase relative abundance”.
